Measurements from ChEMBL document CHEMBL1201862, “PubChem BioAssay data set” (2004).
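Each compound was tested at five concentrations against cells in 96-well plates for 48 hours. GI50 = concentration required for 50% inhibition of growth.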 The source made the active and inactive calls. Cut-off read from the data, not from the text of the source: active = GI50 up to about 1.1 µM and inactive = higher.

Assays:
Test in all cases: growth of human tumour cells (NCI), 48 h
SW-620 = test system: SW-620
HCT-116 = test system: HCT-116
A498 = test system: A498
Hs-578T = test system: Hs-578T
IGROV-1 = test system: IGROV-1
U-251 = test system: U-251
SF-539 = test system: SF-539
MDA-MB-435 = test system: MDA-MB-435
MOLT-4 = test system: MOLT-4
COLO 205 = test system: COLO 205
K562 = test system: K562
SR = test system: SR
SNB-19 = test system: SNB-19
ACHN = test system: ACHN
A549 = test system: A549
NCI-H226 = test system: NCI-H226
HT-29 = test system: HT-29
M14 = test system: M14
SK-OV-3 = test system: SK-OV-3
UACC-62 = test system: UACC-62

Compound	GI50 (SW-620)	GI50 (HCT-116)	GI50 (A498)	GI50 (Hs-578T)	GI50 (IGROV-1)	GI50 (U-251)	GI50 (SF-539)	GI50 (MDA-MB-435)	GI50 (MOLT-4)	GI50 (COLO 205)	GI50 (K562)	GI50 (SR)	GI50 (SNB-19)	GI50 (ACHN)	GI50 (A549)	GI50 (NCI-H226)	GI50 (HT-29)	GI50 (M14)	GI50 (SK-OV-3)	GI50 (UACC-62)
CCCc1c(O)nc2ccccc2c1O	> 100 µM (inactive)	> 100 µM (inactive)	> 100 µM (inactive)	> 100 µM (inactive)	> 100 µM (inactive)	> 100 µM (inactive)	> 100 µM (inactive)	> 100 µM (inactive)	> 100 µM (inactive)	> 100 µM (inactive)	> 100 µM (inactive)	> 100 µM (inactive)	> 100 µM (inactive)	> 100 µM (inactive)	> 100 µM (inactive)	> 100 µM (inactive)	> 100 µM (inactive)	–	–	–
O=C1OCC=C1COC1OC(CO)C(O)C(O)C1O (stereo unspecified)	> 100 µM (inactive)	> 100 µM (inactive)	> 100 µM (inactive)	> 100 µM (inactive)	> 100 µM (inactive)	> 100 µM (inactive)	> 100 µM (inactive)	> 100 µM (inactive)	> 100 µM (inactive)	> 100 µM (inactive)	> 100 µM (inactive)	36.2 µM (inactive)	> 100 µM (inactive)	> 100 µM (inactive)	> 100 µM (inactive)	> 100 µM (inactive)	> 100 µM (inactive)	> 100 µM (inactive)	> 100 µM (inactive)	–
CCc1c(CNc2ccc(C(=O)NC(CC(=O)O)C(=O)O)cc2)ccc2nc(N)nc(N)c12 (stereo unspecified)	< 0.0138 µM (active)	< 0.01 µM (active)	2.03 µM (inactive)	> 1000 µM (inactive)	< 0.0177 µM (active)	–	< 0.0292 µM (active)	< 0.01 µM (active)	< 0.0182 µM (active)	16.7 µM (inactive)	< 0.01 µM (active)	< 0.01 µM (active)	2.39 µM (inactive)	< 0.01 µM (active)	< 0.0169 µM (active)	> 100 µM (inactive)	< 0.0178 µM (active)	< 0.01 µM (active)	> 20 µM (inactive)	< 0.0177 µM (active)
CC[C@@H]1CC[C@@H]2[C@H](CC[C@]3(C)[C@@H](OS(=O)(=O)c4ccc(C)cc4)CC[C@@H]23)[C@H]1CO	> 100 µM (inactive)	> 100 µM (inactive)	> 100 µM (inactive)	> 100 µM (inactive)	> 100 µM (inactive)	> 100 µM (inactive)	81.5 µM (inactive)	> 100 µM (inactive)	> 100 µM (inactive)	12.4 µM (inactive)	69.2 µM (inactive)	> 100 µM (inactive)	> 100 µM (inactive)	> 100 µM (inactive)	> 100 µM (inactive)	> 100 µM (inactive)	27.3 µM (inactive)	87.3 µM (inactive)	–	–
COC(=O)C1(Cc2ccc3c(c2)CCC3)Cc2ccc3c(c2C1)CCC3 (stereo unspecified)	25.2 µM (inactive)	18.1 µM (inactive)	22.3 µM (inactive)	17.4 µM (inactive)	21.1 µM (inactive)	17.3 µM (inactive)	37.9 µM (inactive)	12.7 µM (inactive)	43.3 µM (inactive)	19 µM (inactive)	85.5 µM (inactive)	> 10 µM (inactive)	–	24.1 µM (inactive)	27.4 µM (inactive)	21.1 µM (inactive)	14.9 µM (inactive)	–	52.8 µM (inactive)	32 µM (inactive)
